Measurements taken from US12583852B2, “Heterocycle derivative” (JW PHARMACEUTICAL CORPORATION, priority 2018, dated 2026).

Test system: human dermal papilla cells
Assay: Promotion of proliferation of human dermal papilla cells (CellTiter-Glo Luminescent cell viability assay)
Type: cell-based
Settings: human dermal papilla cells (ScienCell, 2499); drug 0 to 30 μM; 48 hours; CellTiter-Glo luminescence; compared to DMSO-treated control group
Description: The effect of promoting cell proliferation by the drug was analyzed using human dermal papilla cells (ScienCell, 2499). Human dermal papilla cells cultured using Mesenchymal Stem Cell Medium (ScienCell, 7501) medium were seeded at a density of 3×10^3 cells/well and in a volume of 100 μl in a 96-well plate, incubated overnight at 37° C. and 5% CO2, treated with the drug at different concentrations ranging from 0 to 30 μM in a volume of 100 μL, and incubated at 37° C. and 5% CO2 for 48 hours. CellTiter-Glo Luminescent cell viability assay was performed according to the manufacturer's protocol (Promega, G7573) to detect cell proliferation. Luminescence was measured using an Envision 2102 multilabeled reader (PerkinElmer) equipment, and the cell proliferation rate was analyzed by the activity of the drug-treated group compared to the DMSO-treated group (control group), which is a solvent of the drug.

Compound	Maximum DP cell proliferation (%)
3-chloro-N-(2,3-dihydro-1H-inden-4-yl)-5-fluoro-1H-pyrazolo[3,4-b]pyridin-6-amine [Compound 8]	7.9
Nc1n[nH]c2nc(Nc3cccc4c3CCC4)c(F)cc12 [Compound 3, N6-(2,3-dihydro-1H-inden-4-yl)-5-fluoro-1H-pyrazolo[3,4-b]pyridine-3,6-diamine]	23
Nc1n[nH]c2nc(Nc3cccc4c3CCC4)ccc12 [Compound 4, N6-(2,3-dihydro-1H-inden-4-yl)-1H-pyrazolo[3,4-b]pyridine-3,6-diamine]	4
CC(C)(C)c1cccc(Nc2nc3[nH]nc(N)c3cc2F)c1 [Compound 5, N6-(3-(tert-butyl)phenyl)-5-fluoro-1H-pyrazolo[3,4-b]pyridine-3,6-diamine]	7.4
Cn1ccc2c(Nc3nc4[nH]nc(N)c4cc3F)cccc21 [Compound 6, 5-fluoro-N6-(1-methyl-1H-indol-4-yl)-1H-pyrazolo[3,4-b]pyridine-3,6-diamine]	7
Nc1n[nH]c2nc(Nc3cccc4c3COC4)c(F)cc12 [Compound 9, N6-(1,3-dihydroisobenzofuran-4-yl)-5-fluoro-1H-pyrazolo[3,4-b]pyridine-3,6-diamine]	2.6
Nc1n[nH]c2nc(Nc3cccc4occc34)c(F)cc12 [Compound 10, N6-(benzofuran-4-yl)-5-fluoro-1H-pyrazolo[3,4-b]pyridine-3,6-diamine]	13
Cc1cccc(Nc2nc3[nH]nc(N)c3cc2F)c1C [Compound 12, N6-(2,3-dimethylphenyl)-5-fluoro-1H-pyrazolo[3,4-b]pyridine-3,6-diamine]	5.4
CCOC(=O)c1cc2c(N)n[nH]c2nc1Nc1cccc2c1CCC2 [Compound 14, ethyl 3-amino-6-((2,3-dihydro-1H-inden-4-yl)amino)-1H-pyrazolo[3,4-b]pyridine-5-carboxylate]	5.3
Nc1n[nH]c2nc(Nc3cccc4c3CCC4)cnc12 [Compound 15, N6-(2,3-dihydro-1H-inden-4-yl)-1H-pyrazolo[3,4-b]pyrazine-3,6-diamine]	24
Nc1n[nH]c2nc(Nc3cccc4c3CCC4)c(C(=O)O)cc12 [Compound 16, 3-amino-6-((2,3-dihydro-1H-inden-4-yl)amino)-1H-pyrazolo[3,4-b]pyridine-5-carboxylic acid]	6.1
Cc1c(Cl)c(Nc2cccc3c2CCC3)nc2[nH]nc(N)c12 [Compound 17, 5-chloro-N6-(2,3-dihydro-1H-inden-4-yl)-4-methyl-1H-pyrazolo[3,4-b]pyridine-3,6-diamine]	6
Cc1ccc(Nc2nc3[nH]nc(N)c3cc2F)cc1C [Compound 18, N6-(3,4-dimethylphenyl)-5-fluoro-1H-pyrazolo[3,4-b]pyridine-3,6-diamine]	7.8
Nc1n[nH]c2nc(Nc3cccc4c3CCCC4)c(F)cc12 [Compound 19, 5-fluoro-N6-(5,6,7,8-tetrahydronaphthalen-1-yl)-1H-pyrazolo[3,4-b]pyridine-3,6-diamine]	9
CCCc1cc2c(N)n[nH]c2nc1Nc1cccc2c1CCC2 [Compound 21, N6-(2,3-dihydro-1H-inden-4-yl)-5-propyl-1H-pyrazolo[3,4-b]pyridine-3,6-diamine]	3
Nc1n[nH]c2nc(Nc3cccc4c3CCC4)c(-c3ccccc3)cc12 [Compound 23, N6-(2,3-dihydro-1H-inden-4-yl)-5-phenyl-1H-pyrazolo[3,4-b]pyridine-3,6-diamine]	5
Nc1n[nH]c2nc(Nc3cccc4ccccc34)c(F)cc12 [Compound 24, 5-fluoro-N6-(naphthalen-1-yl)-1H-pyrazolo[3,4-b]pyridine-3,6-diamine]	8
Cc1cc2c(c(Nc3nc4[nH]nc(N)c4cc3F)c1)CCC2 [Compound 27, 5-fluoro-N6-(6-methyl-2,3-dihydro-1H-inden-4-yl)-1H-pyrazolo[3,4-b]pyridine-3,6-diamine]	6.8
Nc1n[nH]c2nc(Nc3c4c(cc5c3CCC5)CCC4)c(F)cc12 [Compound 29, 5-fluoro-N6-(1,2,3,5,6,7-hexahydro-s-indacen-4-yl)-1H-pyrazolo[3,4-b]pyridine-3,6-diamine]	4.6
Cc1ccc2cccc(Nc3nc4[nH]nc(N)c4cc3F)c2c1 [Compound 31, 5-fluoro-N6-(7-methyl-1-naphthyl)-1H-pyrazolo[3,4-b]pyridine-3,6-diamine]	3.2
Cc1c(Nc2nc3[nH]nc(N)c3cc2F)cccc1N(C)C [Compound 33, N6-(3-(dimethylamino)-2-methylphenyl)-5-fluoro-1H-pyrazolo[3,4-b]pyridine-3,6-diamine]	6.3

Compound	Maximum DP cell proliferation (%)
Nc1n[nH]c2nc(CNc3cccc4c3CCC4)c(F)cc12 [Compound 34, 5-fluoro-6-[(indan-4-ylamino)methyl]-1H-pyrazolo[3,4-b]pyridin-3-amine]	6.8
Nc1n[nH]c2nc(Nc3cccc4ccccc34)ccc12 [Compound 35, N6-(naphthalen-1-yl)-1H-pyrazolo[3,4-b]pyridine-3,6-diamine]	1.2
Nc1n[nH]c2nc(Nc3cccc4c3CCCC4)ccc12 [Compound 38, N6-(5,6,7,8-tetrahydronaphthalen-1-yl)-1H-pyrazolo[3,4-b]pyridine-3,6-diamine]	2.2
Nc1n[nH]c2nc(Nc3cccc(C(F)F)c3F)cnc12 [Compound 39, N6-[3-(difluoromethyl)-2-fluoro-phenyl]-1H-pyrazolo[3,4-b]pyrazine-3,6-diamine]	7.9
Nc1n[nH]c2nc(Nc3cccc4c3CCC4)c(Cl)c(Cl)c12 [Compound 42, 4,5-dichloro-N6-indan-4-yl-1H-pyrazolo[3,4-b]pyridine-3,6-diamine]	16
Nc1n[nH]c2nc(Nc3cccc4c3CCCC4)cnc12 [Compound 45, N6-tetralin-5-yl-1H-pyrazolo[3,4-b]pyrazine-3,6-diamine]	7
Nc1n[nH]c2nc(Nc3cccc4c3CC=C4)c(F)cc12 [Compound 48, 5-fluoro-N6-(1H-inden-7-yl)-1H-pyrazolo[3,4-b]pyridine-3,6-diamine]	11
CC1(C)CCc2c(Nc3nc4[nH]nc(N)c4cc3F)cccc21 [Compound 51, N6-(1,1-dimethyl-2,3-dihydro-1H-inden-4-yl)-5-fluoro-1H-pyrazolo[3,4-b]pyridine-3,6-diamine]	8.7
CC1(C)Cc2cccc(Nc3nc4[nH]nc(N)c4cc3F)c2C1 [Compound 52, N6-(2,2-dimethyl-2,3-dihydro-1H-inden-4-yl)-5-fluoro-1H-pyrazolo[3,4-b]pyridine-3,6-diamine]	11
Nc1n[nH]c2nc(Nc3cccc4c3CNC4=O)c(F)cc12 [Compound 53, 4-((3-amino-5-fluoro-1H-pyrazolo[3,4-b]pyridin-6-yl)amino)isoindolin-1-one]	2.4
Nc1n[nH]c2nc(Nc3cccc4c3CC(=O)N4)c(F)cc12 [Compound 54, 4-((3-amino-5-fluoro-1H-pyrazolo[3,4-b]pyridin-6-yl)amino)indolin-2-one]	4.4
Nc1n[nH]c2nc(Nc3cc(O)cc4c3CCC4)c(F)cc12 [Compound 56, 7-[(3-amino-5-fluoro-1H-pyrazolo[3,4-b]pyridin-6-yl)amino]indan-5-ol]	7.3
Nc1n[nH]c2nc(Nc3c(O)ccc4c3CCC4)c(F)cc12 [Compound 57, 4-[(3-amino-5-fluoro-1H-pyrazolo[3,4-b]pyridin-6-yl)amino]indan-5-ol]	3.1
Cc1c(Nc2cccc3c2CCC3)nc2[nH]nc(N)c2c1C [Compound 58, N6-(2,3-dihydro-1H-inden-4-yl)-4,5-dimethyl-1H-pyrazolo[3,4-b]pyridine-3,6-diamine]	13
Nc1n[nH]c2nc(Nc3cccc(Cl)c3Cl)c(F)cc12 [Compound 59, N6-(2,3-dichlorophenyl)-5-fluoro-1H-pyrazolo[3,4-b]pyridine-3,6-diamine]	15
Nc1n[nH]c2nc(Nc3cccc4ncccc34)c(F)cc12 [Compound 60, 5-fluoro-N6-(quinolin-5-yl)-1H-pyrazolo[3,4-b]pyridine-3,6-diamine]	6.1
Nc1n[nH]c2nc(Nc3cccc(C(F)F)c3F)c(F)cc12 [Compound 61, N6-(3-(difluoromethyl)-2-fluorophenyl)-5-fluoro-1H-pyrazolo[3,4-b]pyridine-3,6-diamine]	11
Nc1n[nH]c2nc(Nc3cccc(F)c3C(F)(F)F)c(F)cc12 [Compound 62, 5-fluoro-N6-(3-fluoro-2-(trifluoromethyl)phenyl)-1H-pyrazolo[3,4-b]pyridine-3,6-diamine]	6.2
Nc1n[nH]c2nc(Nc3cccc(C(F)(F)F)c3F)c(F)cc12 [Compound 64, 5-fluoro-N6-(2-fluoro-3-(trifluoromethyl)phenyl)-1H-pyrazolo[3,4-b]pyridine-3,6-diamine]	16
Nc1n[nH]c2nc(Nc3cccc(C(F)(F)F)c3F)ccc12 [Compound 65, N6-[2-fluoro-3-(trifluoromethyl)phenyl]-1H-pyrazolo[3,4-b]pyridine-3,6-diamine]	10
